From ChEMBL document CHEMBL4811263, “Tulipiferamide A, an Alkamide from Liriodendron tulipifera, Exhibits an Anti-Inflammatory Effect via Targeting IKKβ Phosphorylation” (J Nat Prod, 2021) come the findings set out here.

Active and inactive are the calls of the source. The rule behind the calls is not given here.

Test [1] relates to RAW264.7. In words: Antiinflammatory activity in mouse RAW264.7 cells assessed as inhibition of LPS-induced TNFalpha mRNA expression at 30 uM preincubated for 30 mins followed by LPS stimulation by RT-PCR analysis. It is filed as functional, cell-based.
The subject of test [2] is RAW264.7. In words: Antiinflammatory activity in mouse RAW264.7 cells assessed as inhibition of LPS-induced COX-2 mRNA expression at 30 uM preincubated for 30 mins followed by LPS stimulation by RT-PCR analysis. It is filed as functional, cell-based.
Test [3] concerns the target T1, Inhibitor of nuclear factor kappa-B kinase subunit alpha (Mus musculus) (UniProt Q60680).
T1 sequence (whole entry): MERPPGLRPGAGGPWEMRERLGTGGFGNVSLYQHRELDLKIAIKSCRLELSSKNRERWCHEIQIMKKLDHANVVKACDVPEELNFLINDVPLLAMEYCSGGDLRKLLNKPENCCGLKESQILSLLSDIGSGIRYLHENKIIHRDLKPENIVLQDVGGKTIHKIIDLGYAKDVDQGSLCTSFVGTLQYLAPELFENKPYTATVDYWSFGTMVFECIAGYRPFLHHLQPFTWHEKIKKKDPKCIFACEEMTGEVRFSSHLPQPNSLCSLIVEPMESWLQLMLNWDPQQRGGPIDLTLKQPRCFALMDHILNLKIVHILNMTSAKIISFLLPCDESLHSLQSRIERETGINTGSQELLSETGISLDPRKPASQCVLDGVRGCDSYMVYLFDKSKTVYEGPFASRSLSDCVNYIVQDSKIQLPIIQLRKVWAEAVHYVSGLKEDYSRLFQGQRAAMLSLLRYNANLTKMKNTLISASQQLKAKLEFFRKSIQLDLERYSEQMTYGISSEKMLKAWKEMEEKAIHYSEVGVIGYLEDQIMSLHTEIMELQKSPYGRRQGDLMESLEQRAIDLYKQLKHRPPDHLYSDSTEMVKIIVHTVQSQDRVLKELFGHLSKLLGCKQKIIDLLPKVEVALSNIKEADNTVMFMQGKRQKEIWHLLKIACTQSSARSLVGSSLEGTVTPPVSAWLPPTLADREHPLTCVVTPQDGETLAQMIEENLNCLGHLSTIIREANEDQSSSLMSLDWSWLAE
As to the kind of experiment: Inhibition of IKKalpha mediated NF-kappaB activation in mouse RAW264.7 cells assessed as TWEAK-induced degradation of TRAF2 by Western blotting analysis. It is filed as cell-based. In general terms: A western blot detects proteins with antibodies after separation by electrophoresis.

A further test relates to HEK293. As to the kind of experiment: Inhibition of IKK phosphorylation in HEK293 cells transfected with IKKbeta by Western blotting analysis. The settings on record: Homo sapiens. Format: cell-based.
The subject of test [4] is RAW264.7. In words: Inhibition of NF-kappaB activation in mouse RAW264.7 cells assessed as inhibition of LPS-induced IKKalpha phosphorylation at 30 uM preincubated for 30 mins followed by LPS stimulation by Western blotting analysis. It is filed as cell-based.
In test [5] the test system is RAW264.7. As to the kind of experiment: Inhibition of NF-kappaB activation in mouse RAW264.7 cells assessed as inhibition of LPS-induced relA phosphorylation at 30 uM preincubated for 30 mins followed by LPS stimulation by Western blotting analysis. Format: cell-based.
The subject of test [6] is RAW264.7. As to the kind of experiment: Antiinflammatory activity in mouse RAW264.7 cells assessed as inhibition of LPS-induced IL6 mRNA expression at 30 uM preincubated for 30 mins followed by LPS stimulation by RT-PCR analysis. It is filed as functional, cell-based.
The test system of test [7] is RAW264.7. In words: Antiinflammatory activity in mouse RAW264.7 assessed as inhibition of LPS-induced NO production preincubated for 30 mins followed by LPS stimulation measured after 24 hrs by Griess reagent based assay. Format: functional, cell-based. (Griess reagent forms a coloured azo dye with nitrite.)
Test [8] has as its system RAW264.7. As to the kind of experiment: Antiinflammatory activity in mouse RAW264.7 cells assessed as inhibition of LPS-induced IL-1beta mRNA expression at 30 uM preincubated for 30 mins followed by LPS stimulation by RT-PCR analysis. Format: functional, cell-based.
The target in test [9] is T1, Inhibitor of nuclear factor kappa-B kinase subunit alpha (Mus musculus). As to the kind of experiment: Inhibition of IKKalpha mediated NF-kappaB activation in mouse RAW264.7 cells assessed as reduction TWEAK-induced processing of p100 to p52 by Western blotting analysis. Format: cell-based.
The subject of test [10] is RAW264.7. In words: Inhibition of MAPK in mouse RAW264.7 cells assessed as inhibition of LPS-induced ERK phosphorylation at 30 uM preincubated for 30 mins followed by LPS stimulation by Western blotting analysis. Format: cell-based.
Test [11] concerns RAW264.7. As to the kind of experiment: Antiinflammatory activity in mouse RAW264.7 cells assessed as inhibition of LPS-induced iNOS mRNA expression at 30 uM preincubated for 30 mins followed by LPS stimulation by RT-PCR analysis. It is filed as functional, cell-based.
Test [12] concerns RAW264.7. In words: Inhibition of NF-kappaB activation in mouse RAW264.7 cells assessed as inhibition of LPS-induced IkappaBalpha phosphorylation at 30 uM preincubated for 30 mins followed by LPS stimulation by Western blotting analysis. Format: cell-based.
The test system of test [13] is RAW264.7. As to the kind of experiment: Inhibition of MAPK in mouse RAW264.7 cells assessed as inhibition of LPS-induced JNK phosphorylation at 30 uM preincubated for 30 mins followed by LPS stimulation by Western blotting analysis. It is filed as cell-based.
Test [14] has as its system RAW264.7. In words: Antiinflammatory activity in mouse RAW264.7 cells assessed as inhibition of LPS-induced IL-1beta protein expression at 30 uM preincubated for 30 mins followed by LPS stimulation by Western blot analysis. It is filed as functional, cell-based.
The nature of test [15]: Inhibition of LPS-indued NF-kappaB activation in mouse RAW264.7 cells preincubated for 30 mins followed by LPS stimulation and measured after 10 hrs by luciferase assay. It is filed as cell-based.
Test [16] deals with RAW264.7. In words: Antiinflammatory activity in mouse RAW264.7 cells assessed as inhibition of LPS-induced COX-2 protein expression at 30 uM preincubated for 30 mins followed by LPS stimulation by Western blot analysis. Format: functional, cell-based.
Test [17] concerns the target T2, Inhibitor of nuclear factor kappa-B kinase subunit beta (Mus musculus) (UniProt O88351).
T2 sequence (whole entry): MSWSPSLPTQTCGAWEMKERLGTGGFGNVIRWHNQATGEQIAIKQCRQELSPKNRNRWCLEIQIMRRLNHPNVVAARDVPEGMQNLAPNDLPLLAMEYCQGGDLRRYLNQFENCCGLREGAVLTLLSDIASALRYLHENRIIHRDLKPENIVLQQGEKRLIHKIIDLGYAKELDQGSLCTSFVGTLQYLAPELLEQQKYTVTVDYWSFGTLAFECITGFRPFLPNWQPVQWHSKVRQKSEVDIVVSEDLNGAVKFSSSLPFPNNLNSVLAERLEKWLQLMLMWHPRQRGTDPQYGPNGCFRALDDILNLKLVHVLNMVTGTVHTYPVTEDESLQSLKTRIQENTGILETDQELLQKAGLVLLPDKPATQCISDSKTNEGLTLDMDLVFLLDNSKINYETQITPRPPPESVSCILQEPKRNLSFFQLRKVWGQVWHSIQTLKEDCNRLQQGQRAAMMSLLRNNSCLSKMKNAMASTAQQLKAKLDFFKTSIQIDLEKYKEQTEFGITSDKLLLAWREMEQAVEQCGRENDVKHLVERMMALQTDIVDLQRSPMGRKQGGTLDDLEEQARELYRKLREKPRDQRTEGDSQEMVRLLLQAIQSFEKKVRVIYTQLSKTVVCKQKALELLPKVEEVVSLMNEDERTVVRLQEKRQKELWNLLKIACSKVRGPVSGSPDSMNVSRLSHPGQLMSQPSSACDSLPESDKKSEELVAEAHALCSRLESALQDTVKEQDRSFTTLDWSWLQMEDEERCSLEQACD
In words: Inhibition of IKKbeta mediated NF-kappaB activation in mouse RAW264.7 cells assessed as inhibition of TWEAK-induced p65 phosphorylation on serine 536 by Western blotting analysis. Format: cell-based.

The target of test [18] is T1, Inhibitor of nuclear factor kappa-B kinase subunit alpha (Mus musculus). In words: Inhibition of IKKalpha mediated NF-kappaB activation in mouse RAW264.7 cells assessed as reduction in LIGHT-induced processing of p100 to p52 by Western blotting analysis. It is filed as cell-based.
In test [19] the test system is RAW264.7. In words: Inhibition of NF-kappaB activation in mouse RAW264.7 cells assessed as inhibition of LPS-induced IKKbeta phosphorylation at 30 uM preincubated for 30 mins followed by LPS stimulation by Western blotting analysis. It is filed as cell-based.
Test [20] has as its system RAW264.7. In words: Antiinflammatory activity in mouse RAW264.7 cells assessed as inhibition of LPS-induced iNOS protein expression at 30 uM preincubated for 30 mins followed by LPS stimulation by Western blot analysis. It is filed as functional, cell-based.
For test [21], the system named is RAW264.7. As to the kind of experiment: Inhibition of MAPK in mouse RAW264.7 cells assessed as inhibition of LPS-induced p38 phosphorylation at 30 uM preincubated for 30 mins followed by LPS stimulation by Western blotting analysis. Format: cell-based.
Test [22] has as its target T1, Inhibitor of nuclear factor kappa-B kinase subunit alpha (Mus musculus). As to the kind of experiment: Inhibition of IKKalpha mediated NF-kappaB activation in mouse RAW264.7 cells assessed as TWEAK-induced degradation of TRAF3 by Western blotting analysis. It is filed as cell-based.

As a reminder, the IC50 is the concentration needed to halve the response being measured.

With `CCCCC/C=C\C=C\C(=O)NCCc1ccccc1`, the outcome in the test with RAW264.7 [1], in the test with RAW264.7 [2], in the test with RAW264.7 [6], with RAW264.7 [8], with RAW264.7 [11] and with RAW264.7 [14] was Active. Further, the outcome in the test on RAW264.7 [16] and in the test on RAW264.7 [20] was Active. The inhibition result (in test [3]; in test [9]; in the test on RAW264.7 [10]; in the test on RAW264.7 [13]; in test [18]; with RAW264.7 [21]) was “inactive” each time. Moreover, the inhibition entry in [22] was “inactive”. Moreover, the inhibition result (with HEK293; with RAW264.7 [4]; with RAW264.7 [5]; in the test with RAW264.7 [12]; in test [17]; with RAW264.7 [19]) was “Active” each time. For the same molecule, the IC50 in the test on RAW264.7 [7] was found to be 13.3 µM; in test [15] it was 21.6 µM.
